Source: patent US20230085307A1, “PYRIDAZINONE COMPOUND AND HERBICIDE” (NISSAN CHEMICAL CORPORATION, priority 2019, published 2023)

Legend:
[1] = test system: false cleavers; test: Test Example 5: herbicidal effect by foliage application, plastic box (Table 20, symbol Q); type: in vivo, false cleavers (Galium spurium); conditions: foliage application; for herbicidal effect grade, Q: false cleavers / effect on false cleavers (Q) / herbicidal effect on Q: false cleavers: 320 g/ha; for effect on false cleavers (Q): 3 weeks after application; for herbicidal effect on Q: false cleavers / Q: false cleavers, herbicidal effect (criteria 0-5): evaluated three weeks after application
Procedure, shortened: (§1)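 Plants were sown into sterilized diluvial soil under about 1.5 cm cover and kept in a greenhouse at 25° C. to 30° C. Fourteen days on, foliage received an even spray of the diluted emulsion. Herbicidal or crop effect was judged three weeks afterwards.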

[2] = test system: false cleavers; test: Test Example 4: herbicidal effect by soil treatment (Table 19, symbol Q); type: in vivo, false cleavers (Galium spurium)
Procedure, shortened: (§2)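 Pre-emergence style soil spray: seeds under ~1.5 cm sterilized diluvial soil received a uniform coat of emulsion diluted to the predetermined herbicide amount. Greenhouse 25–30° C; readout at week three on previously defined criteria.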

[3] = test system: directly sowed rice; test: Test Example 3: effect on crop by foliage application, Wagner pot (Table 18, symbol b); type: in vivo; conditions: 320 g/ha
Procedure, shortened: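 Plants were sown in alluvial soil held under 0.1–0.5 cm standing water and grown 14 days in a greenhouse at 25–30 °C. An emulsifiable formulation, water-diluted to the set dose, was then sprayed onto the foliage, and effects were scored three weeks later using previously defined criteria.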

[4] = test system: soybean; test: Test Example 5: effect on crop by foliage application, plastic box (Table 20, symbol d); type: in vivo; conditions: 320 g/ha
Procedure, shortened: as §1

[5] = test system: wheat; test: Test Example 4: effect on crop by soil treatment (Table 19, symbol e); type: in vivo
Procedure, shortened: as §2

[6] = test system: wheat; test: Test Example 5: effect on crop by foliage application, plastic box (Table 20, symbol e); type: in vivo; conditions: 320 g/ha
Procedure, shortened: as §1

[7] = test system: beet; test: Test Example 5: effect on crop by foliage application, plastic box (Table 20, symbol f); type: in vivo; conditions: 320 g/ha
Procedure, shortened: as §1

[8] = test system: corn; test: Test Example 5: effect on crop by foliage application, plastic box (Table 20, symbol c); type: in vivo; conditions: 320 g/ha
Procedure, shortened: as §1

[9] = test system: transplanted rice; test: Test Example 1: effect on crop, application before weed generation under submerged conditions (Table 16, symbol a); type: in vivo; conditions: 320 g/ha applied herbicide
From the text: [Test Example 1] Herbicidal Activity Test by Application before Weed Generation under Submerged Conditions After alluvial soil was placed into 1/10000 are of Wagner pot, water was poured and mixed to form a submerged condition having a water depth of 4 cm. Seeds of late watergrass, Japanese bulrush, and oval-leafed pondweed were sowed in a mixed manner in the aforementioned pot, and then 2.5 leaf stage rice plant seedlings were transplanted thereto. On the day of sowing seeds, the emulsion agent of the compound of the present invention prepared according to Formulation Example 2 was diluted with water so as to achieve a predetermined herbicide amount, and the diluted emulsion agent was applied to the surface of the water. The pot was placed in a greenhouse at 25° C. to 30° C. for growth of the plants. Three weeks after the herbicide application, the effect of the herbicide on each plant was evaluated according to the following criteria. Evaluation Criteria 5: Herbicidal rate of 90% or more (almost completely withered) 4: Herbicidal rate of 70% or more and less than 90% 3: Herbicidal rate of 40% or more and less than 70% 2: Herbicidal rate of 20% or more and less than 40% 1: Herbicidal rate of 5% or more and less than 20% 0: Herbicidal rate of 5% or less (almost no effect)

[10] = test system: corn; test: Test Example 4: effect on crop by soil treatment (Table 19, symbol c); type: in vivo
Procedure, shortened: as §2

[11] = test system: beet; test: Test Example 4: effect on crop by soil treatment (Table 19, symbol f); type: in vivo
Procedure, shortened: as §2

[12] = test system: rapeseed; test: Test Example 5: effect on crop by foliage application, plastic box (Table 20, symbol g); type: in vivo; conditions: 320 g/ha
Procedure, shortened: as §1

[13] = test system: soybean; test: Test Example 4: effect on crop by soil treatment (Table 19, symbol d); type: in vivo
Procedure, shortened: as §2

[14] = test system: rapeseed; test: Test Example 4: effect on crop by soil treatment (Table 19, symbol g); type: in vivo
Procedure, shortened: as §2

[15] = amount of applied herbicide 320 g/ha

CCCOc1ccc(-c2sc3ccccc3c2-c2c(O)c(C)nn(C)c2=O)cc1 [1-019]
herbicidal effect grade, Q: false cleavers ([1]; three weeks after application): 3 (Herbicidal rate of 40% or more and less than 70%) | herbicidal effect rating, Q: false cleavers [2, 15]: 0 (Herbicidal rate of 5% or less (almost no effect))

Cc1nn(C)c(=O)c(-c2c(-c3ccc(OC(C)C)cc3)sc3ccccc23)c1O [1-020]
herbicidal effect rating, Q: false cleavers [2, 15]: 0 (Herbicidal rate of 5% or less (almost no effect))

CCCCOc1ccc(-c2sc3ccccc3c2-c2c(O)c(C)nn(C)c2=O)cc1 [1-024]
herbicidal effect grade, Q: false cleavers ([1]; three weeks after application): 4 (Herbicidal rate of 70% or more and less than 90%) | herbicidal effect rating, Q: false cleavers [2, 15]: 0 (Herbicidal rate of 5% or less (almost no effect))

CCCCOc1ccc(-c2sc3ccccc3c2-c2c(OC(=O)CCC)c(C)nn(C)c2=O)cc1 [1-025]
herbicidal effect grade, Q: false cleavers ([1]; three weeks after application): 3 (Herbicidal rate of 40% or more and less than 70%) | herbicidal effect rating, Q: false cleavers [2, 15]: 0 (Herbicidal rate of 5% or less (almost no effect))

CCCC(=O)Oc1c(C)nn(C)c(=O)c1-c1c(-c2ccc(SC)cc2)sc2ccccc12 [1-037]
herbicidal effect rating, Q: false cleavers [2, 15]: 0 (Herbicidal rate of 5% or less (almost no effect))

Cc1nn(C)c(=O)c(-c2c(-c3ccc4c(c3)OCCO4)sc3ccccc23)c1O [1-089]
herbicidal effect rating, Q: false cleavers [2, 15]: 5 (Herbicidal rate of 90% or more (almost completely withered))

C=CCOc1ccccc1-c1sc2ccccc2c1-c1c(O)c(C)nn(C)c1=O [1-110]
Q: false cleavers, herbicidal effect ([1]; AAH 320 g/ha, three weeks after application): 5 (Herbicidal rate of 90% or more (almost completely withered))

Cc1nn(C)c(=O)c(-c2c(-c3ccc(OCC(F)F)cc3)sc3ccccc23)c1O [1-203]
effect on false cleavers (Q) [1]: 5 (Herbicidal rate of 90% or more (almost completely withered))

Cc1nn(C)c(=O)c(-c2c(-c3ccc(F)cc3)sc3ccc(F)cc23)c1O [2-001]
effect on false cleavers (Q) [1]: 5 (Herbicidal rate of 90% or more (almost completely withered))

CCCC(=O)Oc1c(C)nn(C)c(=O)c1-c1c(-c2ccc(OC)cc2)sc2ccc(F)cc12 [2-027]
effect on false cleavers (Q) [1]: 0 (Herbicidal rate of 5% or less (almost no effect)) | herbicidal effect rating, Q: false cleavers ([2]; 320 g/ha): 0 (Herbicidal rate of 5% or less (almost no effect))

CCCOc1ccc(-c2sc3ccc(F)cc3c2-c2c(OC(=O)CCC)c(C)nn(C)c2=O)cc1 [2-033]
effect on false cleavers (Q) [1]: 5 (Herbicidal rate of 90% or more (almost completely withered))

CCCC(=O)Oc1c(C)nn(C)c(=O)c1-c1c(-c2ccc(OC(C)C)cc2)sc2ccc(F)cc12 [2-035]
effect on false cleavers (Q) [1]: 4 (Herbicidal rate of 70% or more and less than 90%)

CCCC(=O)Oc1c(C)nn(C)c(=O)c1-c1c(-c2ccc3c(c2)OCO3)sc2ccc(F)cc12 [2-091]
herbicidal effect on Q: false cleavers [1]: 4 (Herbicidal rate of 70% or more and less than 90%)

COc1ccccc1-c1sc2ccc(Cl)cc2c1-c1c(O)c(C)nn(C)c1=O [2-101]
herbicidal effect on Q: false cleavers [1]: 5 (Herbicidal rate of 90% or more (almost completely withered)) | Q: false cleavers, herbicidal effect rating [2, 15]: 5 (Herbicidal rate of 90% or more (almost completely withered))

C=CCOC(=O)Oc1c(C)nn(C)c(=O)c1-c1c(-c2ccc(OC(F)F)cc2)sc2ccc(F)cc12 [2-294]
Q: false cleavers, herbicidal effect (criteria 0-5) ([1]; AAH 320 g/ha): 5 (Herbicidal rate of 90% or more (almost completely withered))

COc1cccc(S(=O)(=O)Oc2c(C)nn(C)c(=O)c2-c2c(-c3ccc(OC(F)F)cc3)sc3ccc(F)cc23)c1 [2-313]
Q: false cleavers, herbicidal effect (criteria 0-5) ([1]; AAH 320 g/ha): 5 (Herbicidal rate of 90% or more (almost completely withered))

Cc1nn(C)c(=O)c(-c2c(-c3ccc(CSCC(F)(F)F)cc3)sc3ccc(F)cc23)c1O [2-331]
herbicidal effect on Q: false cleavers [2, 15]: 0 (Herbicidal rate of 5% or less (almost no effect))

COc1ccccc1-c1sc2cc(C)ccc2c1-c1c(O)c(C)nn(C)c1=O [3-049]
Q: false cleavers, herbicidal effect grade ([1]; 274 g/ha, three weeks after application): 5 (Herbicidal rate of 90% or more (almost completely withered)) | Q: false cleavers, herbicidal effect grade ([2]; amount of applied herbicide 274 g/ha): 3 (Herbicidal rate of 40% or more and less than 70%)

CCOc1ccccc1-c1sc2cc(OC)ccc2c1-c1c(O)c(C)nn(C)c1=O [3-070]
Q: false cleavers, herbicidal effect grade ([1]; 80 g/ha, three weeks after application): 5 (Herbicidal rate of 90% or more (almost completely withered)) | Q: false cleavers, herbicidal effect grade ([2]; amount of applied herbicide 80 g/ha): 1 (Herbicidal rate of 5% or more and less than 20%)

CCCC(=O)Oc1c(C)nn(C)c(=O)c1-c1c(-c2ccc(F)cc2OCC)oc2ccc(C)cc12 [9-010]
herbicidal effect on false cleavers (Q) ([1]; 246 g/ha, three weeks after application): 3 (Herbicidal rate of 40% or more and less than 70%)

Cc1nn(C)c(=O)c(-c2c(-c3ccc(C#N)cc3)sc3ccccc23)c1O [Compound No. 1-045, 5-hydroxy-2,6-dimethyl-4-(2-(4-cyanophenyl)benzo[b]thiophen-3-yl)pyridazin-3(2H)-one]
effect on crop b (directly sowed rice), rating 0-5 [3]: 0 (Herbicidal rate of 5% or less (almost no effect)) | effect on crop grade, d: soybean ([4]; three weeks after application): 1 (Herbicidal rate of 5% or more and less than 20%) | herbicidal effect grade, Q: false cleavers ([1]; three weeks after application): 5 (Herbicidal rate of 90% or more (almost completely withered)) | effect rating on crop, e: wheat [5, 15]: 0 (Herbicidal rate of 5% or less (almost no effect)) | melting point: 240 to 242 °C | effect on crop grade, e: wheat ([6]; three weeks after application): 0 (Herbicidal rate of 5% or less (almost no effect)) | effect on crop grade, f: beet ([7]; three weeks after application): 5 (Herbicidal rate of 90% or more (almost completely withered)) | effect on crop grade, c: corn ([8]; three weeks after application): 0 (Herbicidal rate of 5% or less (almost no effect)) | Effect on crop a: transplanted rice (grade 0-5) [9]: 0 (Herbicidal rate of 5% or less (almost no effect)) | effect rating on crop, c: corn [10, 15]: 0 (Herbicidal rate of 5% or less (almost no effect)) | effect rating on crop, f: beet [11, 15]: 5 (Herbicidal rate of 90% or more (almost completely withered)) | herbicidal effect rating, Q: false cleavers [2, 15]: 4 (Herbicidal rate of 70% or more and less than 90%) | effect on crop grade, g: rapeseed ([12]; three weeks after application): 5 (Herbicidal rate of 90% or more (almost completely withered)) | effect rating on crop, d: soybean [13, 15]: 3 (Herbicidal rate of 40% or more and less than 70%) | effect rating on crop, g: rapeseed [14, 15]: 5 (Herbicidal rate of 90% or more (almost completely withered))

Cc1nn(C)c(=O)c(-c2c(-c3ccc(Cl)cc3)sc3ccc(F)cc23)c1O [Compound No. 2-010, 4-(2-(4-chlorophenyl)-5-fluorobenzo[b]thiophen-3-yl)-5-hydroxy-2,6-dimethylpyridazin-3(2H)-one]
effect on crop b (directly sowed rice), rating 0-5 [3]: 0 (Herbicidal rate of 5% or less (almost no effect)) | effect on soybean (d) ([4]; 3 weeks after application): 3 (Herbicidal rate of 40% or more and less than 70%) | effect rating on crop, e: wheat ([5]; 320 g/ha): 0 (Herbicidal rate of 5% or less (almost no effect)) | melting point: 258 to 259 °C | effect on wheat (e) ([6]; 3 weeks after application): 0 (Herbicidal rate of 5% or less (almost no effect)) | effect on beet (f) ([7]; 3 weeks after application): 5 (Herbicidal rate of 90% or more (almost completely withered)) | effect on corn (c) ([8]; 3 weeks after application): 0 (Herbicidal rate of 5% or less (almost no effect)) | Effect on crop a: transplanted rice (grade 0-5) [9]: 0 (Herbicidal rate of 5% or less (almost no effect)) | effect rating on crop, c: corn ([10]; 320 g/ha): 0 (Herbicidal rate of 5% or less (almost no effect)) | effect rating on crop, f: beet ([11]; 320 g/ha): 3 (Herbicidal rate of 40% or more and less than 70%) | effect on rapeseed (g) ([12]; 3 weeks after application): 5 (Herbicidal rate of 90% or more (almost completely withered)) | effect rating on crop, d: soybean ([13]; 320 g/ha): 0 (Herbicidal rate of 5% or less (almost no effect)) | effect rating on crop, g: rapeseed ([14]; 320 g/ha): 3 (Herbicidal rate of 40% or more and less than 70%)
